pIC50: −log10 of the molar value. Positions of bridges follow the written chain, without caps; N, C: chain ends. Non-standard residues stand in square brackets, D forms with d. Residues, ends and D or L forms follow the SMILES beside them. *: point of attachment. hPhe(3-Cl-4-CF3) = N[C@@H](CCc1ccc(C(F)(F)F)c(Cl)c1)C(=O)O; NMePhe(4-Me) = CN[C@@H](Cc1ccc(C)cc1)C(=O)O; Abu(4,4,4-F3) = N[C@@H](CC(F)(F)F)C(=O)O; NMeAla(cPent) = CN[C@@H](CC1CCCC1)C(=O)O; NMeGly(cPent) = CN[C@H](C(=O)O)C1CCCC1; NMeCha = CN[C@@H](CC1CCCCC1)C(=O)O; NMeAhp(2) = CCCCC[C@H](NC)C(=O)O; NMeChg = CN[C@H](C(=O)O)C1CCCCC1; NMeD = CN[C@@H](CC(=O)O)C(=O)O; NMeL = CN[C@@H](CC(C)C)C(=O)O; NMeNle = CCCC[C@H](NC)C(=O)O; NMeV = CN[C@H](C(=O)O)C(C)C; NMeAbu = CC[C@H](NC)C(=O)O; NMeS = CN[C@@H](CO)C(=O)O; NMeA = CN[C@@H](C)C(=O)O; Piperidide = C1CCN(*)CC1; Pyrrolidide = C1CCN(*)C1; Ac5c = NC1(C(=O)O)CCCC1; Aze = O=C(O)[C@@H]1CCN1; Aib = CC(C)(N)C(=O)O; Cyclopropyl = C1CC1*; Sar = CNCC(=O)O
What was measured:
[1] = molecular target: T1, Kras and SOS1 (biotin-tagged human Kras loaded with GDP, His-tagged human SOS1) (Homo sapiens, UniProt P01116, G12D); test: Protein-protein interaction inhibition between Kras and SOS1 (KrasGl2D-SOS PPI) using AlphaScreen; type: binding; details: AlphaScreen; biotin-tagged human Kras loaded with GDP, His-tagged human SOS1; read-out: KRAS G12D-SOS PPI IC50
T1 construct: made in house; host or cells: E. coli (stated for Kras only)
Summary of the method: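 Read-out is acceptor-bead light at 520-620 nm, arising when 680 nm-irradiated nickel donor beads pass singlet oxygen to streptavidin acceptors. The bead pair links His-tagged SOS1 with biotin-tagged, GDP-bound Kras from E. coli.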

[2] = system: Human pancreatic cancer cell line AsPC-1; test: Measurement of AsPC-1 cell growth inhibition (AsPC-1 CGI); type: cell-based; details: 96 h
Summary of the method: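 AsPC-1 cells in 15% FBS RPMI-1640 were exposed to test compound for 96 hours at 37° C, with CellTiter-Glo as endpoint.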

T1 sequence (P01116 1-188 isoform P01116-2 G12D): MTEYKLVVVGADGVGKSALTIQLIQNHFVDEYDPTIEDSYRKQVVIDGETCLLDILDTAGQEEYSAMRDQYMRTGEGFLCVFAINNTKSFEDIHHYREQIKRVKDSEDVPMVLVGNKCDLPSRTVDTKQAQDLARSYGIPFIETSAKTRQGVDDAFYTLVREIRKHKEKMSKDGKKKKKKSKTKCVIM

Structure (SMILES) | pIC50 [1] | pIC50 [2]
CC[C@H](C)[C@@H]1NC(=O)[C@H](C)N(C)C(=O)C[C@@H](C(=O)N2CCCC2)N(C)C(=O)[C@H](C2CCCCC2)N(C)C(=O)C2(CCCC2)NC(=O)[C@@H]2CCCN2C(=O)[C@H](CCc2ccc(C(F)(F)F)c(Cl)c2)NC(=O)CN(C)C(=O)[C@H](CC2CCCCC2)N(C)C(=O)CN(C)C(=O)CN(C)C1=O [Compound 1720] ([NMeA]I[Sar][Sar][NMeCha][Sar][hPhe(3-Cl-4-CF3)]P[Ac5c][NMeChg][NMeD]-Pyrrolidide; lactam N-11) | 9.24 | 7.00 to 7.30
CC[C@H](C)[C@@H]1NC(=O)[C@H](CC(C)C)N(C)C(=O)C[C@@H](C(=O)N2CCCC2)N(C)C(=O)[C@H](C2CCCCC2)N(C)C(=O)C2(CCCC2)NC(=O)[C@@H]2CCCN2C(=O)[C@H](CCc2ccc(C(F)(F)F)c(Cl)c2)NC(=O)CN(C)C(=O)[C@H](CC2CCCCC2)N(C)C(=O)[C@@H]2CCN2C(=O)[C@H](C)N(C)C1=O [Compound 1726] ([NMeL]I[NMeA][Aze][NMeCha][Sar][hPhe(3-Cl-4-CF3)]P[Ac5c][NMeChg][NMeD]-Pyrrolidide; lactam N-11) | 9.17 | 7.30 to 7.70
CC[C@H](C)[C@@H]1NC(=O)[C@H](CC(C)C)N(C)C(=O)C[C@@H](C(=O)N(C)C)N(C)C(=O)[C@H](C(C)C)N(C)C(=O)C2(CCCC2)NC(=O)[C@@H]2CCCN2C(=O)[C@H](CCc2ccc(C(F)(F)F)c(Cl)c2)NC(=O)CN(C)C(=O)[C@H](CC2CCCCC2)N(C)C(=O)[C@@H]2CCN2C(=O)[C@H](C)N(C)C1=O [Compound 1728] ([NMeL]I[NMeA][Aze][NMeCha][Sar][hPhe(3-Cl-4-CF3)]P[Ac5c][NMeV][NMeD]-NMe2; lactam N-11) | 8.92 | 7.00 to 7.30
CC[C@H](C)[C@@H]1NC(=O)[C@H](CC(C)C)N(C)C(=O)C[C@@H](C(=O)N(C)C)N(C)C(=O)[C@H](C2CCCCC2)N(C)C(=O)C2(CCCC2)NC(=O)[C@@H]2CCCN2C(=O)[C@H](CCc2ccc(C(F)(F)F)c(Cl)c2)NC(=O)CN(C)C(=O)[C@H](CC2CCCCC2)N(C)C(=O)CN(C)C(=O)CN(C)C1=O [Compound 1729] ([NMeL]I[Sar][Sar][NMeCha][Sar][hPhe(3-Cl-4-CF3)]P[Ac5c][NMeChg][NMeD]-NMe2; lactam N-11) | 9.36 | 7.30 to 7.70
CC[C@H](C)[C@@H]1NC(=O)[C@H](CC(C)C)N(C)C(=O)C[C@@H](C(=O)N2CCCCC2)N(C)C(=O)[C@H](C2CCCCC2)N(C)C(=O)C2(CCCC2)NC(=O)[C@@H]2CCCN2C(=O)[C@H](CCc2ccc(C(F)(F)F)c(Cl)c2)NC(=O)CN(C)C(=O)[C@H](COC2CC2)N(C)C(=O)CN(C)C(=O)CN(C)C1=O [Compound 1731] ([NMeL]I[Sar][Sar][NMeS](Cyclopropyl)[Sar][hPhe(3-Cl-4-CF3)]P[Ac5c][NMeChg][NMeD]-Piperidide; lactam N-11) | 8.72 | 6.30 to 7.00
CCCCC[C@H]1C(=O)N[C@@H]([C@@H](C)CC)C(=O)N(C)CC(=O)N(C)CC(=O)N(C)[C@@H](CC2CCCCC2)C(=O)N(C)CC(=O)N[C@@H](CCc2ccc(C(F)(F)F)c(Cl)c2)C(=O)N2CCC[C@H]2C(=O)NC2(CCCC2)C(=O)N(C)[C@@H](C2CCCCC2)C(=O)N(C)[C@H](C(=O)N2CCCCC2)CC(=O)N1C [Compound 1735] ([NMeAhp(2)]I[Sar][Sar][NMeCha][Sar][hPhe(3-Cl-4-CF3)]P[Ac5c][NMeChg][NMeD]-Piperidide; lactam N-11) | 8.96 | 7.00 to 7.30
CC[C@H](C)[C@@H]1NC(=O)[C@H](CC(C)C)N(C)C(=O)C[C@@H](C(=O)N2CCCCC2)N(C)C(=O)[C@H](C(C)C)N(C)C(=O)C2(CCCC2)NC(=O)[C@@H]2CCCN2C(=O)[C@H](CCc2ccc(C(F)(F)F)c(Cl)c2)NC(=O)CN(C)C(=O)[C@H](COC2CC2)N(C)C(=O)[C@@H]2CCN2C(=O)[C@H](C)N(C)C1=O [Compound 1738] ([NMeL]I[NMeA][Aze][NMeS](Cyclopropyl)[Sar][hPhe(3-Cl-4-CF3)]P[Ac5c][NMeV][NMeD]-Piperidide; lactam N-11) | 7.96 | 6.30 to 7.00
CC[C@H](C)[C@@H]1NC(=O)[C@H](CC(C)C)N(C)C(=O)C[C@@H](C(=O)N2CCCCC2)N(C)C(=O)[C@H](C(C)C)N(C)C(=O)C2(CCCC2)NC(=O)[C@@H]2CCCN2C(=O)[C@H](CCc2ccc(C(F)(F)F)c(Cl)c2)NC(=O)CN(C)C(=O)[C@H](CC2CCCC2)N(C)C(=O)[C@@H]2CCN2C(=O)[C@H](C)N(C)C1=O [Compound 1739] ([NMeL]I[NMeA][Aze][NMeAla(cPent)][Sar][hPhe(3-Cl-4-CF3)]P[Ac5c][NMeV][NMeD]-Piperidide; lactam N-11) | 8.33 | 6.30 to 7.00
CCCC[C@H]1C(=O)N[C@@H]([C@@H](C)CC)C(=O)N(C)CC(=O)N(C)CC(=O)N(C)[C@@H](CC2CCCCC2)C(=O)N(C)CC(=O)N[C@@H](CCc2ccc(C(F)(F)F)c(Cl)c2)C(=O)N2CCC[C@H]2C(=O)NC2(CCCC2)C(=O)N(C)[C@@H](C2CCCCC2)C(=O)N(C)[C@H](C(=O)N2CCCCC2)CC(=O)N1C [Compound 1740] ([NMeNle]I[Sar][Sar][NMeCha][Sar][hPhe(3-Cl-4-CF3)]P[Ac5c][NMeChg][NMeD]-Piperidide; lactam N-11) | 9.10 | 7.00 to 7.30
CC(C)C[C@H]1C(=O)N[C@@H](CC(F)(F)F)C(=O)N(C)CC(=O)N(C)CC(=O)N(C)[C@@H](CC2CCCCC2)C(=O)N(C)CC(=O)N[C@@H](CCc2ccc(C(F)(F)F)c(Cl)c2)C(=O)N2CCC[C@H]2C(=O)NC2(CCCC2)C(=O)N(C)[C@@H](C2CCCCC2)C(=O)N(C)[C@H](C(=O)N2CCCCC2)CC(=O)N1C [Compound 1744] ([NMeL][Abu(4,4,4-F3)][Sar][Sar][NMeCha][Sar][hPhe(3-Cl-4-CF3)]P[Ac5c][NMeChg][NMeD]-Piperidide; lactam N-11) | 8.40 | 6.30 to 7.00
CC[C@H](C)[C@@H]1NC(=O)[C@H](CC(C)C)N(C)C(=O)C[C@@H](C(=O)N2CCCC2)N(C)C(=O)[C@H](C(C)C)N(C)C(=O)C2(CCCC2)NC(=O)[C@@H]2CCCN2C(=O)[C@H](CCc2ccc(C(F)(F)F)c(Cl)c2)NC(=O)CN(C)C(=O)[C@H](Cc2ccc(C)cc2)N(C)C(=O)CN(C)C(=O)CN(C)C1=O [Compound 1749] ([NMeL]I[Sar][Sar][NMePhe(4-Me)][Sar][hPhe(3-Cl-4-CF3)]P[Ac5c][NMeV][NMeD]-Pyrrolidide; lactam N-11) | 9.13 | 6.30 to 7.00
CC[C@H](C)[C@@H]1NC(=O)[C@H](CC(C)C)N(C)C(=O)C[C@@H](C(=O)N2CCCCC2)N(C)C(=O)[C@H](C(C)C)N(C)C(=O)C(C)(C)NC(=O)[C@@H]2CCCN2C(=O)[C@H](CCc2ccc(C(F)(F)F)c(Cl)c2)NC(=O)CN(C)C(=O)[C@H](CC2CCCCC2)N(C)C(=O)[C@@H]2CCN2C(=O)[C@H](C)N(C)C1=O [Compound 1751] ([NMeL]I[NMeA][Aze][NMeCha][Sar][hPhe(3-Cl-4-CF3)]P[Aib][NMeV][NMeD]-Piperidide; lactam N-11) | 8.14 | 6.30 to 7.00
CC[C@H](C)[C@@H]1NC(=O)[C@H](CC(C)C)N(C)C(=O)C[C@@H](C(=O)N2CCCC2)N(C)C(=O)[C@H](C2CCCCC2)N(C)C(=O)C2(CCCC2)NC(=O)[C@@H]2CCCN2C(=O)[C@H](CCc2ccc(C(F)(F)F)c(Cl)c2)NC(=O)CN(C)C(=O)[C@H](CC2CCCCC2)N(C)C(=O)CN(C)C(=O)CN(C)C1=O [Compound 1757] ([NMeL]I[Sar][Sar][NMeCha][Sar][hPhe(3-Cl-4-CF3)]P[Ac5c][NMeChg][NMeD]-Pyrrolidide; lactam N-11) | 9.37 | 7.30 to 7.70
CC[C@H](C)[C@@H]1NC(=O)[C@H](CC(C)C)N(C)C(=O)C[C@@H](C(=O)N2CCCC2)N(C)C(=O)[C@H](C2CCCC2)N(C)C(=O)C2(CCCC2)NC(=O)[C@@H]2CCCN2C(=O)[C@H](CCc2ccc(C(F)(F)F)c(Cl)c2)NC(=O)CN(C)C(=O)[C@H](Cc2ccc(C)cc2)N(C)C(=O)CN(C)C(=O)CN(C)C1=O [Compound 1761] ([NMeL]I[Sar][Sar][NMePhe(4-Me)][Sar][hPhe(3-Cl-4-CF3)]P[Ac5c][NMeGly(cPent)][NMeD]-Pyrrolidide; lactam N-11) | 9.39 | 7.30 to 7.70
CC[C@H](C)[C@@H]1NC(=O)[C@H](CC(C)C)N(C)C(=O)C[C@@H](C(=O)N(C)C)N(C)C(=O)[C@H](C2CCCCC2)N(C)C(=O)C2(CCCC2)NC(=O)[C@@H]2CCCN2C(=O)[C@H](CCc2ccc(C(F)(F)F)c(Cl)c2)NC(=O)CN(C)C(=O)[C@H](Cc2ccc(C)cc2)N(C)C(=O)CN(C)C(=O)CN(C)C1=O [Compound 1762] ([NMeL]I[Sar][Sar][NMePhe(4-Me)][Sar][hPhe(3-Cl-4-CF3)]P[Ac5c][NMeChg][NMeD]-NMe2; lactam N-11) | 9.43 | 7.30 to 7.70
CC(C)C[C@H]1C(=O)N[C@@H](COC2CC2)C(=O)N(C)CC(=O)N(C)CC(=O)N(C)[C@@H](CC2CCCCC2)C(=O)N(C)CC(=O)N[C@@H](CCc2ccc(C(F)(F)F)c(Cl)c2)C(=O)N2CCC[C@H]2C(=O)NC2(CCCC2)C(=O)N(C)[C@@H](C2CCCCC2)C(=O)N(C)[C@H](C(=O)N2CCCCC2)CC(=O)N1C [Compound 1766] ([NMeL]S(Cyclopropyl)[Sar][Sar][NMeCha][Sar][hPhe(3-Cl-4-CF3)]P[Ac5c][NMeChg][NMeD]-Piperidide; lactam N-11) | 8.44 | 6.30 to 7.00
CC[C@H](C)[C@@H]1NC(=O)[C@H](CC)N(C)C(=O)C[C@@H](C(=O)N2CCCCC2)N(C)C(=O)[C@H](C2CCCCC2)N(C)C(=O)C2(CCCC2)NC(=O)[C@@H]2CCCN2C(=O)[C@H](CCc2ccc(C(F)(F)F)c(Cl)c2)NC(=O)CN(C)C(=O)[C@H](CC2CCCCC2)N(C)C(=O)CN(C)C(=O)CN(C)C1=O [Compound 1770] ([NMeAbu]I[Sar][Sar][NMeCha][Sar][hPhe(3-Cl-4-CF3)]P[Ac5c][NMeChg][NMeD]-Piperidide; lactam N-11) | 9.15 | 7.00 to 7.30

— patent publication US12371454B2, “Cyclic peptide compound having Kras inhibitory action” (priority 2019, dated 2025)
